Data: ChEMBL document CHEMBL2010711, “Synthesis and comparative evaluation of 4-oxa- and 4-aza-podophyllotoxins as antiproliferative microtubule destabilizing agents” (Bioorg Med Chem Lett, 2012)
Calls of active or inactive are those of the source.

Experiments:
RXF 393 = experiment: Cytotoxicity against human RXF393 cells after 48 hrs by trypan blue dye exclusion assay; assay type: functional; settings: RXF 393, 48 h
U-251 = experiment: Cytotoxicity against human U251 cells after 48 hrs by trypan blue dye exclusion assay; assay type: functional; settings: U-251, 48 h
Paracentrotus lividus [1] = experiment: Antimitotic activity against Paracentrotus lividus embryo assessed as cleavage alteration at 2 fold less effective threshold concentration after 2.5 to 6 hrs; assay type: functional, organism-based
UO-31 = experiment: Cytotoxicity against human UO31 cells after 48 hrs by trypan blue dye exclusion assay; assay type: functional; settings: UO-31, 48 h
NCI/ADR-RES = experiment: Cytotoxicity against human NCI/ADR-RES cells after 48 hrs by trypan blue dye exclusion assay; assay type: functional
OVCAR-8 = experiment: Cytotoxicity against human OVCAR8 cells after 48 hrs by trypan blue dye exclusion assay; assay type: functional; settings: OVCAR-8, 48 h
MOLT-4 = experiment: Cytotoxicity against human MOLT4 cells after 48 hrs by trypan blue dye exclusion assay; assay type: functional; settings: MOLT-4, 48 h
DU-145 = experiment: Cytotoxicity against human DU145 cells after 48 hrs by trypan blue dye exclusion assay; assay type: functional; settings: DU-145, 48 h
MDA-MB-435 = experiment: Cytotoxicity against human MDA-MB-435 cells after 48 hrs by trypan blue dye exclusion assay; assay type: functional; settings: MDA-MB-435, 48 h
LOX IMVI = experiment: Cytotoxicity against human LOXIMVI cells after 48 hrs by trypan blue dye exclusion assay; assay type: functional
CCRF-CEM = experiment: Cytotoxicity against human CCRF-CEM cells after 48 hrs by trypan blue dye exclusion assay; assay type: functional
RPMI-8226 = experiment: Cytotoxicity against human RPMI8226 cells after 48 hrs by trypan blue dye exclusion assay; assay type: functional; settings: RPMI-8226, 48 h
OVCAR-3 = experiment: Cytotoxicity against human OVCAR3 cells after 48 hrs by trypan blue dye exclusion assay; assay type: functional; settings: OVCAR-3, 48 h
UACC-62 = experiment: Cytotoxicity against human UACC62 cells after 48 hrs by trypan blue dye exclusion assay; assay type: functional; settings: UACC-62, 48 h
A549 = experiment: Cytotoxicity against human A549 cells after 48 hrs by trypan blue dye exclusion assay; assay type: functional; settings: A549, 48 h
SF-539 = experiment: Cytotoxicity against human SF539 cells after 48 hrs by trypan blue dye exclusion assay; assay type: functional; settings: SF-539, 48 h
786-0 = experiment: Cytotoxicity against human 786-0 cells after 48 hrs by trypan blue dye exclusion assay; assay type: functional; settings: 786-0, 48 h
OVCAR-5 = experiment: Cytotoxicity against human OVCAR5 cells after 48 hrs by trypan blue dye exclusion assay; assay type: functional; settings: OVCAR-5, 48 h
UACC-257 = experiment: Cytotoxicity against human UACC257 cells after 48 hrs by trypan blue dye exclusion assay; assay type: functional; settings: UACC-257, 48 h
Paracentrotus lividus [2] = experiment: Antimitotic activity against Paracentrotus lividus embryo assessed as cleavage arrest at 2 fold less effective threshold concentration after 2.5 to 6 hrs; assay type: functional, organism-based
SK-OV-3 = experiment: Cytotoxicity against human SKOV3 cells after 48 hrs by trypan blue dye exclusion assay; assay type: functional; settings: SK-OV-3, 48 h
COLO 205 = experiment: Cytotoxicity against human COLO205 cells after 48 hrs by trypan blue dye exclusion assay; assay type: functional; settings: COLO 205, 48 h
HL-60(TB) = experiment: Cytotoxicity against human HL-60(TB) cells after 48 hrs by trypan blue dye exclusion assay; assay type: functional; settings: HL-60, 48 h
HT-29 = experiment: Cytotoxicity against human HT-29 cells after 48 hrs by trypan blue dye exclusion assay; assay type: functional; settings: HT-29, 48 h
SNB-75 = experiment: Cytotoxicity against human SNB75 cells after 48 hrs by trypan blue dye exclusion assay; assay type: functional; settings: SNB-75, 48 h
HCT-116 = experiment: Cytotoxicity against human HCT116 cells after 48 hrs by trypan blue dye exclusion assay; assay type: functional; settings: HCT-116, 48 h
HOP-92 = experiment: Cytotoxicity against human HOP92 cells after 48 hrs by trypan blue dye exclusion assay; assay type: functional; settings: HOP-92, 48 h
HCT-15 = experiment: Cytotoxicity against human HCT15 cells after 48 hrs by trypan blue dye exclusion assay; assay type: functional; settings: HCT-15, 48 h
SF-268 = experiment: Cytotoxicity against human SF268 cells after 48 hrs by trypan blue dye exclusion assay; assay type: functional; settings: SF-268, 48 h
[3] = Cytotoxicity against human Hs 578T cells after 48 hrs by trypan blue dye exclusion assay; assay type: functional
HCC 2998 = experiment: Cytotoxicity against human HCC2998 cells after 48 hrs by trypan blue dye exclusion assay; assay type: functional; settings: HCC 2998, 48 h
ACHN = experiment: Cytotoxicity against human ACHN cells after 48 hrs by trypan blue dye exclusion assay; assay type: functional
EKVX = experiment: Cytotoxicity against human EKVX cells after 48 hrs by trypan blue dye exclusion assay; assay type: functional
NCI-H23 = experiment: Cytotoxicity against human NCI-H23 cells after 48 hrs by trypan blue dye exclusion assay; assay type: functional; settings: NCI-H23, 48 h
SN12C = experiment: Cytotoxicity against human SN12C cells after 48 hrs by trypan blue dye exclusion assay; assay type: functional
NCI-H460 = experiment: Cytotoxicity against human NCI-H460 cells after 48 hrs by trypan blue dye exclusion assay; assay type: functional; settings: NCI-H460, 48 h
NCI-H322M = experiment: Cytotoxicity against human NCI-H322M cells after 48 hrs by trypan blue dye exclusion assay; assay type: functional
MCF7 = experiment: Cytotoxicity against human MCF7 cells after 48 hrs by trypan blue dye exclusion assay; assay type: functional; settings: MCF7, 48 h
NCI-H522 = experiment: Cytotoxicity against human NCI-H522 cells after 48 hrs by trypan blue dye exclusion assay; assay type: functional; settings: NCI-H522, 48 h
SK-MEL-5 = experiment: Cytotoxicity against human SK-MEL-5 cells after 48 hrs by trypan blue dye exclusion assay; assay type: functional; settings: SK-MEL-5, 48 h
IGROV-1 = experiment: Cytotoxicity against human IGROV1 cells after 48 hrs by trypan blue dye exclusion assay; assay type: functional; settings: IGROV-1, 48 h
SF-295 = experiment: Cytotoxicity against human SF295 cells after 48 hrs by trypan blue dye exclusion assay; assay type: functional; settings: SF-295, 48 h
SK-MEL-2 = experiment: Cytotoxicity against human SK-MEL-2 cells after 48 hrs by trypan blue dye exclusion assay; assay type: functional; settings: SK-MEL-2, 48 h
BT-549 = experiment: Cytotoxicity against human BT549 cells after 48 hrs by trypan blue dye exclusion assay; assay type: functional; settings: BT-549, 48 h
SW-620 = experiment: Cytotoxicity against human SW620 cells after 48 hrs by trypan blue dye exclusion assay; assay type: functional; settings: SW-620, 48 h
CAKI-1 = experiment: Cytotoxicity against human CAKI-1 cells after 48 hrs by trypan blue dye exclusion assay; assay type: functional; settings: CAKI-1, 48 h
TK-10 = experiment: Cytotoxicity against human TK10 cells after 48 hrs by trypan blue dye exclusion assay; assay type: functional; settings: TK-10, 48 h
SNB-19 = experiment: Cytotoxicity against human SNB19 cells after 48 hrs by trypan blue dye exclusion assay; assay type: functional; settings: SNB-19, 48 h
SR = experiment: Cytotoxicity against human SR cells after 48 hrs by trypan blue dye exclusion assay; assay type: functional
MDA-MB-468 = experiment: Cytotoxicity against human MDA-MB-468 cells after 48 hrs by trypan blue dye exclusion assay; assay type: functional; settings: MDA-MB-468, 48 h
PC-3 = experiment: Cytotoxicity against human PC3 cells after 48 hrs by trypan blue dye exclusion assay; assay type: functional; settings: PC-3, 48 h
Malme-3M = experiment: Cytotoxicity against human MALME-3M cells after 48 hrs by trypan blue dye exclusion assay; assay type: functional
KM12 = experiment: Cytotoxicity against human KM12 cells after 48 hrs by trypan blue dye exclusion assay; assay type: functional; settings: KM12, 48 h
A498 = experiment: Cytotoxicity against human A498 cells after 48 hrs by trypan blue dye exclusion assay; assay type: functional; settings: A498, 48 h
M14 = experiment: Cytotoxicity against human M14 cells after 48 hrs by trypan blue dye exclusion assay; assay type: functional; settings: M14, 48 h
OVCAR-4 = experiment: Cytotoxicity against human OVCAR4 cells after 48 hrs by trypan blue dye exclusion assay; assay type: functional; settings: OVCAR-4, 48 h
Paracentrotus lividus [4] = experiment: Microtubule destabilizing activity in Paracentrotus lividus embryo assessed as embryo spinning at 2 fold less effective threshold concentration after 15 mins to 20 hrs; assay type: functional, organism-based
MDA-MB-231 = experiment: Cytotoxicity against human MDA-MB-231 cells after 48 hrs by trypan blue dye exclusion assay; assay type: functional; settings: MDA-MB-231, 48 h
SK-MEL-28 = experiment: Cytotoxicity against human SK-MEL-28 cells after 48 hrs by trypan blue dye exclusion assay; assay type: functional; settings: SK-MEL-28, 48 h
NCI-H226 = experiment: Cytotoxicity against human NCI-H226 cells after 48 hrs by trypan blue dye exclusion assay; assay type: functional; settings: NCI-H226, 48 h

SMILES: COc1cc([C@H]2C3=C(COC3=O)Nc3cc4c(cc32)OCO4)cc2c1OCO2
- GI50 (RXF 393): 30.3 nM
- GI50 (U-251): 108 nM
- Activity (Paracentrotus lividus [1]): inactive
- GI50 (UO-31): 1380 nM
- GI50 (NCI/ADR-RES): 103 nM
- GI50 (OVCAR-8): 232 nM
- GI50 (MOLT-4): 360 nM
- GI50 (DU-145): 173 nM
- GI50 (MDA-MB-435): 26.9 nM
- GI50 (LOX IMVI): 117 nM
- GI50 (CCRF-CEM): 120 nM
- GI50 (RPMI-8226): 93.1 nM
- GI50 (OVCAR-3): 31.9 nM
- GI50 (UACC-62): 48 nM
- GI50 (A549): 306 nM
- GI50 (SF-539): 48.3 nM
- GI50 (786-0): 321 nM
- GI50 (OVCAR-5): 1090 nM
- GI50 (UACC-257): 74.1 nM
- Activity (Paracentrotus lividus [2]): inactive
- GI50 (SK-OV-3): 155 nM
- GI50 (COLO 205): 186 nM
- GI50 (HL-60(TB)): 99 nM
- GI50 (HT-29): 1250 nM
- GI50 (SNB-75): 26.7 nM
- GI50 (HCT-116): 236 nM
- GI50 (HOP-92): 136 nM
- GI50 (HCT-15): 256 nM
- GI50 (SF-268): 108 nM
- GI50 [3]: 37.8 nM
- GI50 (HCC 2998): 387 nM
- GI50 (ACHN): 357 nM
- GI50 (EKVX): 320 nM
- GI50 (NCI-H23): 142 nM
- GI50 (SN12C): 350 nM
- GI50 (NCI-H460): 690 nM
- GI50 (NCI-H322M): 142 nM
- GI50 (MCF7): 37.2 nM
- GI50 (NCI-H522): 144 nM
- GI50 (SK-MEL-5): 101 nM
- GI50 (IGROV-1): 185 nM
- GI50 (SF-295): 29 nM
- GI50 (SK-MEL-2): 207 nM
- GI50 (BT-549): 338 nM
- GI50 (SW-620): 98.2 nM
- GI50 (CAKI-1): 128 nM
- GI50 (TK-10): 115 nM
- GI50 (SNB-19): 362 nM
- GI50 (SR): 60.1 nM
- GI50 (MDA-MB-468): 119 nM
- GI50 (PC-3): 80.3 nM
- GI50 (Malme-3M): > 100 µM
- GI50 (KM12): 36.2 nM
- GI50 (A498): 30.9 nM
- GI50 (M14): 228 nM
- GI50 (OVCAR-4): 98.4 nM
- Activity (Paracentrotus lividus [4]): inactive
- GI50 (MDA-MB-231): 308 nM
- GI50 (SK-MEL-28): 61 nM
- GI50 (NCI-H226): 4.59 µM
